Laboratory results taken from PubChem BioAssay AID248 (DTP/NCI, 2004).
“And” between values parts separate entries of the source, which are not always exact repeats. Equal entries are not always repeated. Inconclusive results and toxic doses are left out. Cut-off read from the data, not from the text of the source: active = T/C of 150% or more; inactive = T/C below 125%.

System: L1210 leukemia ip in BDF1 mice, survival T/C
Assay: NCI In Vivo Anticancer Drug Screen. Data for tumor model L1210 Leukemia (intraperitoneal) in B6D2F1 (BDF1) mice
Conditions: endpoint: mean survival time, higher = longer survival
How it was run: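 Each compound was tested against a transplantable tumor grown in mice. The endpoint was survival, with treated animals benchmarked against vehicle controls as a simple ratio.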

[1] = dose: 100.0 mg/kg/injection, schedule: Q01DX009 (ip), vehicle: saline with Tween-80
[2] = dose: 100.0 mg/kg/injection, schedule: Q04DX002 (ip), vehicle: saline with Tween-80
[3] = dose: 200.0 mg/kg/injection, schedule: Q01DX009 (ip), vehicle: saline with Tween-80
[4] = dose: 200.0 mg/kg/injection, schedule: Q04DX002 (ip), vehicle: saline with Tween-80
[5] = dose: 100.0 mg/kg/injection, schedule: Q04DX003 (ip), vehicle: saline with Tween-80
[6] = dose: 200.0 mg/kg/injection, schedule: Q04DX003 (ip), vehicle: saline with Tween-80
[7] = dose: 400.0 mg/kg/injection, schedule: Q04DX003 (ip), vehicle: saline with Tween-80
[8] = dose: 25.0 mg/kg/injection, schedule: Q04DX002 (ip), vehicle: saline with Tween-80
[9] = dose: 50.0 mg/kg/injection, schedule: Q01DX009 (ip), vehicle: saline
[10] = dose: 100.0 mg/kg/injection, schedule: Q01DX009 (ip), vehicle: Klucel (hydroxypropylcellulose) (HPC)
[11] = dose: 100.0 mg/kg/injection, schedule: Q04DX003 (ip), vehicle: Klucel (hydroxypropylcellulose) (HPC)
[12] = dose: 200.0 mg/kg/injection, schedule: Q01DX009 (ip), vehicle: Klucel (hydroxypropylcellulose) (HPC)
[13] = dose: 200.0 mg/kg/injection, schedule: Q04DX003 (ip), vehicle: Klucel (hydroxypropylcellulose) (HPC)
[14] = dose: 400.0 mg/kg/injection, schedule: Q04DX003 (ip), vehicle: Klucel (hydroxypropylcellulose) (HPC)
[15] = dose: 100.0 mg/kg/injection, schedule: Q01DX001 (ip), vehicle: saline
[16] = dose: 200.0 mg/kg/injection, schedule: Q01DX001 (ip), vehicle: saline
[17] = dose: 400.0 mg/kg/injection, schedule: Q01DX009 (ip), vehicle: Klucel (hydroxypropylcellulose) (HPC)

Measured: T/C

Oc1ccc2ccccc2c1N=Nc1ccc(Cl)cc1
inactive: dose: 12.5 mg/kg/injection, schedule: Q01DX015 (ip), vehicle: saline 104 % of control | dose: 25.0 mg/kg/injection, schedule: Q01DX015 (ip), vehicle: saline 106 % of control | dose: 50.0 mg/kg/injection, schedule: Q01DX015 (ip), vehicle: saline 106 % of control | dose: 100.0 mg/kg/injection, schedule: Q01DX009 (ip), vehicle: carboxymethylcellulose (CMC) 87 % of control | dose: 100.0 mg/kg/injection, schedule: Q01DX015 (ip), vehicle: saline 98 % of control | dose: 100.0 mg/kg/injection, schedule: Q04DX003 (ip), vehicle: acetone 98 % of control | dose: 200.0 mg/kg/injection, schedule: Q01DX009 (ip), vehicle: carboxymethylcellulose (CMC) 87 % of control | dose: 200.0 mg/kg/injection, schedule: Q01DX015 (ip), vehicle: saline 95 % of control | dose: 200.0 mg/kg/injection, schedule: Q04DX003 (ip), vehicle: acetone 94 % of control | dose: 400.0 mg/kg/injection, schedule: Q01DX015 (ip), vehicle: saline 90 % of control | dose: 400.0 mg/kg/injection, schedule: Q04DX003 (ip), vehicle: acetone 88 % of control | dose: 800.0 mg/kg/injection, schedule: Q01DX015 (ip), vehicle: saline 96 % of control | dose: 1600.0 mg/kg/injection, schedule: Q01DX015 (ip), vehicle: saline 89 % of control

CCOC(=O)C1=NC=NC1=[N+]=[N-]
inactive: dose: 5.0 mg/kg/injection, schedule: Q01DX001 (ip), vehicle: saline 92 % of control | dose: 10.0 mg/kg/injection, schedule: Q01DX001 (ip), vehicle: saline 94 % of control | dose: 20.0 mg/kg/injection, schedule: Q01DX001 (ip), vehicle: saline 100 % of control

C/C(=N/NC(N)=S)c1ccncc1
inactive: dose: 2.5 mg/kg/injection, schedule: Q01DX009 (ip), vehicle: Klucel (hydroxypropylcellulose) (HPC) 106 % of control | dose: 5.0 mg/kg/injection, schedule: Q01DX009 (ip), vehicle: Klucel (hydroxypropylcellulose) (HPC) 103 % of control | dose: 10.0 mg/kg/injection, schedule: Q01DX009 (ip), vehicle: Klucel (hydroxypropylcellulose) (HPC) 94 % of control

O=C(O)c1cccc2c1OCO2
inactive: dose: 50.0 mg/kg/injection, schedule: Q01DX009 (ip), vehicle: saline with Tween-80 112 % of control | [1] 98 % of control | [2] 103 % of control | [3] 98 % of control | [4] 95 % of control

Nc1nc(N)c(-c2ccccc2)c(C=O)n1
inactive: [5] 110 % of control | [6] 117 % of control | [7] 110 % of control

c1cc[c]([Sn]([c]2ccccc2)([c]2ccccc2)[n]2nnc3ccccc32)cc1
inactive: dose: 6.25 mg/kg/injection, schedule: Q04DX002 (ip), vehicle: saline with Tween-80 96 % of control | dose: 12.5 mg/kg/injection, schedule: Q04DX002 (ip), vehicle: saline with Tween-80 101 % of control | [8] 101 % of control

CC1Oc2ccccc2NC1=O (stereo not drawn)
inactive: [2] 102 % of control | [4] 106 % of control | dose: 400.0 mg/kg/injection, schedule: Q04DX002 (ip), vehicle: saline with Tween-80 98 % of control

CC(CCc1ccc(O)cc1)OC=O (stereo not drawn)
inactive: dose: 222.0 mg/kg/injection, schedule: Q01DX Z (ip), vehicle: saline 104 % of control | dose: 333.0 mg/kg/injection, schedule: Q01DX Z (ip), vehicle: saline 91 % of control

C[Se]c1ncnc2c1c(C#N)cn2C1OC(CO)C(O)C1O (stereo not drawn)
inactive: dose: 12.5 mg/kg/injection, schedule: Q01DX005 (ip), vehicle: saline 123 % of control | dose: 12.5 mg/kg/injection, schedule: Q01DX009 (ip), vehicle: saline 120 % of control | dose: 25.0 mg/kg/injection, schedule: Q01DX009 (ip), vehicle: saline 124 % of control | dose: 50.0 mg/kg/injection, schedule: Q01DX005 (ip), vehicle: saline 120 % of control | [9] 94 % of control

O=C(c1ccc(-c2ccccc2)cc1)C(Br)CCBr (stereo not drawn)
inactive: [5] 106 % of control | [6] 93 % of control

c1ccc(CC2CCCCCC2)cc1
inactive: [10] 96 % of control | [11] 100 % of control | dose: 150.0 mg/kg/injection, schedule: Q01DX009 (ip), vehicle: Klucel (hydroxypropylcellulose) (HPC) 101 % of control | [12] 102 % of control | [13] 91 % of control | [14] 96 % of control

N=C(N)S/C=C/C(=O)O
inactive: [8] 96 % of control | dose: 50.0 mg/kg/injection, schedule: Q04DX002 (ip), vehicle: saline with Tween-80 96 % of control | [2] 96 % of control and 98 % of control

O=S(=O)(Cc1ncc2cnccn12)c1ccccc1
inactive: dose: 100.0 mg/kg/injection, schedule: Q04DX003 (ip), vehicle: saline 95 % of control | dose: 200.0 mg/kg/injection, schedule: Q04DX003 (ip), vehicle: saline 103 % of control | dose: 400.0 mg/kg/injection, schedule: Q04DX003 (ip), vehicle: saline 104 % of control

Nc1nccnc1N
inactive: [9] 103 % of control | [15] 102 % of control | dose: 100.0 mg/kg/injection, schedule: Q01DX009 (ip), vehicle: saline 105 % of control | [16] 96 % of control

COC1OC2COC(c3ccccc3)OC2C(OC(C)=O)C1OS(=O)(=O)c1ccc(C)cc1 (stereo not drawn)
inactive: dose: 100.0 mg/kg/injection, schedule: Q04DX002 (ip), vehicle: Klucel (hydroxypropylcellulose) (HPC) 109 % of control | dose: 200.0 mg/kg/injection, schedule: Q04DX002 (ip), vehicle: Klucel (hydroxypropylcellulose) (HPC) 88 % of control | dose: 400.0 mg/kg/injection, schedule: Q04DX002 (ip), vehicle: Klucel (hydroxypropylcellulose) (HPC) 109 % of control

CNC(=O)Nc1ccc(OC)cc1OC
inactive: [10] 105 % of control | [11] 106 % of control | [12] 94 % of control | [13] 111 % of control | [17] 98 % of control | [14] 103 % of control

CCC(CO)NC(=O)Nc1cccc2ccccc12 (stereo not drawn)
inactive: dose: 50.0 mg/kg/injection, schedule: Q04DX003 (ip), vehicle: saline with Tween-80 105 % of control | [1] 102 % of control | [5] 105 % of control | [3] 96 % of control | [6] 100 % of control | dose: 400.0 mg/kg/injection, schedule: Q01DX009 (ip), vehicle: saline with Tween-80 96 % of control | [7] 94 % of control

COC(C#N)(Cc1ccccc1)Cc1ccccc1
inactive: dose: 75.0 mg/kg/injection, schedule: Q01DX001 (ip), vehicle: other 92 % of control | dose: 150.0 mg/kg/injection, schedule: Q01DX001 (ip), vehicle: other 95 % of control

CCc1occ(C(=O)N2Cc3cc4ccccc4nc3C2)c1C1SCCS1
inactive: [15] 89 % of control | [16] 92 % of control

COc1cc(C(=O)N2CC2)cc(OC)c1OC
inactive: dose: 25.0 mg/kg/injection, schedule: Q01DX009 (ip), vehicle: water 96 % of control | dose: 50.0 mg/kg/injection, schedule: Q01DX009 (ip), vehicle: water 96 % of control

CCOC(=O)N1CCCCC1
inactive: dose: 50.0 mg/kg/injection, schedule: Q01DX001 (ip), vehicle: carboxymethylcellulose (CMC) 95 % of control | dose: 100.0 mg/kg/injection, schedule: Q01DX001 (ip), vehicle: carboxymethylcellulose (CMC) 95 % of control | dose: 200.0 mg/kg/injection, schedule: Q01DX001 (ip), vehicle: carboxymethylcellulose (CMC) 101 % of control and 93 % of control | dose: 400.0 mg/kg/injection, schedule: Q01DX001 (ip), vehicle: carboxymethylcellulose (CMC) 104 % of control and 90 % of control

O=C(/C=C/c1ccc2c(c1)OCO2)c1ccccc1
inactive: dose: 50.0 mg/kg/injection, schedule: Q01DX009 (ip), vehicle: Klucel (hydroxypropylcellulose) (HPC) 97 % of control | [10] 103 % of control | [11] 102 % of control | [12] 106 % of control | [13] 93 % of control | [17] 103 % of control | [14] 98 % of control

COc1ccc(S(=O)(=O)N=[N+]=[N-])cc1
inactive: [15] 103 % of control | [16] 95 % of control
